Among the data in ChEMBL document CHEMBL4828781, “Novel Heteroaromatic Carboxamide Derivatives as Plasma Kallikrein Inhibitors for Treating Diabetic Complications, Ocular Diseases and Edema-Associated Diseases” (ACS Med Chem Lett, 2021) are IC50 values, retold here.

The test addresses Plasma kallikrein (Homo sapiens, UniProt P03952). Briefly: Inhibition of human plasma kallikrein using […] as fluorogenic substrate measured every 2 mins for 12 mins by microplate reader analysis.

Chain of Plasma kallikrein (P03952 20-390 limits assumed): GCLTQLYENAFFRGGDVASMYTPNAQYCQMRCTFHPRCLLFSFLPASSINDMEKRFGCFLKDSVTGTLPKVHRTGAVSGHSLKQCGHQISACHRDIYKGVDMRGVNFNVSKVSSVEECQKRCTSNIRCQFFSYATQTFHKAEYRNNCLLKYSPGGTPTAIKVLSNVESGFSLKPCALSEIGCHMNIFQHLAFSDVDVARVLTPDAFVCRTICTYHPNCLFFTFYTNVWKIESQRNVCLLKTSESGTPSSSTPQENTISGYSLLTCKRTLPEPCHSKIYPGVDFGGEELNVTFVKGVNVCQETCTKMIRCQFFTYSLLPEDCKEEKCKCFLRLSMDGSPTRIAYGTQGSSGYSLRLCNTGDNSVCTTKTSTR
Chain of Plasma kallikrein (P03952 391-638 limits assumed): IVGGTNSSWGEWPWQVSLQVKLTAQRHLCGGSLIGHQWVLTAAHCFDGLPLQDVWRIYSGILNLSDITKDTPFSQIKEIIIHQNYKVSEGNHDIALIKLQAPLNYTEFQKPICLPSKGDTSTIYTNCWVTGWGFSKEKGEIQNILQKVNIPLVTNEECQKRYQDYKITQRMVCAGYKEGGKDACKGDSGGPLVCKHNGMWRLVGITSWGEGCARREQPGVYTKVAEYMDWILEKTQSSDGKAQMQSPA

For `Cc1c(Cn2cnc(C(=O)N[C@@H]3CCc4c3ncn4C)c2)ccc(N2CC3CC3C2)c1C#N` (stereo partly specified), the IC50 came out at 300 pM.

As a reminder, the IC50 is the midpoint of a concentration-inhibition curve. High values mean lower potency, low ones higher potency.
